Results: patent US20030215462A1, “Use of UGT inhibitors to increase bioavailability” (priority 2001, published 2003)
“And” between values parts separate entries of the source, which are not always exact repeats. Identical values can stand only once. Like-named read-outs stand apart in the source and are kept apart here. Each block holds one compound with its values, some of them ahead of it.

Legend:
Format in all cases: biochemical
[1] = system: UGT enzymes of human liver microsomes; experiment: Inhibition of raloxifene glucuronidation (G1, G2) in human liver microsomes
From the text: Compounds were eluted using a binary solvent gradient system. […] Solvent B was methanol. […] Detection was at 280 nm.

[2] = system: T1, UGT enzymes of human liver microsomes; experiment: Inhibition of 7-HFC glucuronidation in human liver microsomes; conditions: for % of control metabolism (SD, n = 3), 7-HFC glucuronidation: human liver microsomes 100 μg/ml
T1 construct: percentage of control metabolism, 7-HFC glucuronidation; percentage of control metabolism, 7-HFC glucuronidation

[3] = molecular target: T2, UGT enzymes of human liver microsomes (Homo sapiens, UniProt P16662); experiment: Inhibition of zidovudine glucuronidation in human liver microsomes; conditions: liver lot 062101; inhibitor 500 μM
T2 construct: residual metabolism (percentage of control), zidovudine glucuronidation; other: liver lot 062101; residual metabolism (percentage of control), zidovudine glucuronidation; residual metabolism (percentage of control)
T2 sequence (P16662 1-529): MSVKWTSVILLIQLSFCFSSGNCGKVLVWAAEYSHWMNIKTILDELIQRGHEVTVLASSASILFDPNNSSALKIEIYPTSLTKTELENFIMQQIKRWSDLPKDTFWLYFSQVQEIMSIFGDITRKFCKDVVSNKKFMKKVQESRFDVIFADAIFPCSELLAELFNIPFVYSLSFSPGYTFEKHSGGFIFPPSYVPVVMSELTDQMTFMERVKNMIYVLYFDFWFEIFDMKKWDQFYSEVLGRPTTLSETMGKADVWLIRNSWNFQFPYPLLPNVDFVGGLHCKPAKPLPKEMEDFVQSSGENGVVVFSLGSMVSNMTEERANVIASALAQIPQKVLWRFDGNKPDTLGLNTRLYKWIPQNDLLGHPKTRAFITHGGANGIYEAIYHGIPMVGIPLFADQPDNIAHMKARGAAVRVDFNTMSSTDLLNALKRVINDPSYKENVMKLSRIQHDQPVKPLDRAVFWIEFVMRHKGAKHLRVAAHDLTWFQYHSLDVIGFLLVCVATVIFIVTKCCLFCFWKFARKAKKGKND
Experimental: Compounds were eluted using a binary solvent gradient system where solvent A was dilute phosphoric acid (pH 3) and solvent B was acetonitrile.
Standardized incubations utilized 500 μM zidovudine substrate, 1 mg/ml microsomal protein, 5 mM UDPGA and a 30 min incubation time. […] Int.

[4] = G1, inhibitor 500 μM, raloxifene 50 μM, human liver microsomes 250 μg/ml, 15 min
[5] = G2, inhibitor 500 μM, raloxifene 50 μM, human liver microsomes 250 μg/ml, 15 min
[6] = inhibitor 500 μM, 7-HFC 50 μM, 15 min
[7] = G1, inhibitor 100 μM, raloxifene 50 μM, human liver microsomes 250 μg/ml, 15 min
[8] = G2, inhibitor 100 μM, raloxifene 50 μM, human liver microsomes 250 μg/ml, 15 min
[9] = inhibitor 100 μM, 7-HFC 50 μM, 15 min
[10] = inhibitor 200 μM, 7-HFC 50 μM, 15 min

Compound: CC(=O)OC/C=C(C)/C=C/C=C(C)/C=C/C1=C(C)CCCC1(C)C [Retinyl acetate]
% of control metabolism (SD, n = 3), 7-HFC glucuronidation [2, 9]: 72 (1) %
% of control metabolism (SD, n = 3), 7-HFC glucuronidation [2, 10]: 60 (3) %
% of control metabolism (SD, n = 3), 7-HFC glucuronidation [2, 6]: 48 (1) %

Compound: C=CC[C@@H]1/C=C(\C)C[C@H](C)C[C@H](OC)[C@H]2O[C@@](O)(C(=O)C(=O)N3CCCC[C@H]3C(=O)O[C@H](/C(C)=C/[C@@H]3CC[C@@H](O)[C@H](OC)C3)[C@H](C)[C@@H](O)CC1=O)[C@H](C)C[C@@H]2OC [Tacrolimus]
% of control metabolism (SD, n = 3), 7-HFC glucuronidation [2, 6]: 126 (4) %

Compound: CCCCCCCCCCCCOC(=O)c1cc(O)c(O)c(O)c1 [Lauryl gallate]
% of control metabolism (SD, n = 3), raloxifene glucuronide G1 [1, 7]: 64 (4) %
% of control metabolism (SD, n = 3), raloxifene glucuronide G1 [1, 4]: 7 (0) %
% of control metabolism (SD, n = 3), raloxifene glucuronide G2 [1, 8]: 85 (3) %
% of control metabolism (SD, n = 3), raloxifene glucuronide G2 [1, 5]: 37 (1) %
IC50 ([2]; 7-HFC 50 μM, 1 mM UDPGA, 15 min): 100 µM
percentage of control metabolism, 7-HFC glucuronidation ([2]; inhibitor 25 μM): 92 (3) %
% of control metabolism (SD, n = 3), 7-HFC glucuronidation ([2]; inhibitor 25 μM, 7-HFC 50 μM, 15 min): 92 (3) %
percentage of control metabolism, 7-HFC glucuronidation ([2]; inhibitor 50 μM): 76 (2) %
% of control metabolism (SD, n = 3), 7-HFC glucuronidation ([2]; inhibitor 50 μM, 7-HFC 50 μM, 15 min): 76 (2) %
percentage of control metabolism, 7-HFC glucuronidation ([2]; inhibitor 100 μM): 43 (2) % and 49 (1) %
% of control metabolism (SD, n = 3), 7-HFC glucuronidation [2, 9]: 43 (2) % and 49 (1) %
percentage of control metabolism, 7-HFC glucuronidation ([2]; inhibitor 200 μM): 22 (1) %
% of control metabolism (SD, n = 3), 7-HFC glucuronidation [2, 10]: 22 (1) %
percentage of control metabolism, 7-HFC glucuronidation ([2]; inhibitor 500 μM): 18 (6) %
% of control metabolism (SD, n = 3), 7-HFC glucuronidation [2, 6]: 18 (6) %

Compound: O=C(O)c1cc(O)c(O)c(O)c1 [Gallic acid]
% of control metabolism (SD, n = 3), 7-HFC glucuronidation [2, 6]: 117 (2) %

Compound: CCCCNC(=O)NS(=O)(=O)c1ccc(C)cc1 [Tolbutamide]
% of control metabolism (SD, n = 3), raloxifene glucuronide G1 [1]: 98 (7) %
% of control metabolism (SD, n = 3), raloxifene glucuronide G2 [1]: 91 (2) %
% of control metabolism (SD, n = 3), 7-HFC glucuronidation [2, 6]: 100 (0) %

Compound: CCCCCCCCCCCCCCCC(=O)OC/C=C(C)/C=C/C=C(C)/C=C/C1=C(C)CCCC1(C)C [Retinol palmitate]
% of control metabolism (SD, n = 3), 7-HFC glucuronidation [2, 9]: 90 (3) %
% of control metabolism (SD, n = 3), 7-HFC glucuronidation [2, 10]: 82 (1) %
% of control metabolism (SD, n = 3), 7-HFC glucuronidation [2, 6]: 81 (4) %

Compound: COc1c2ccoc2cc2oc(=O)ccc12 [5-Methoxypsoralen (bergapten)]
% of control metabolism (SD, n = 3), 7-HFC glucuronidation [2, 6]: 97 (1), % and 92 (1) %

Compound: O=[N+]([O-])c1ccc(O)cc1 [p-Nitrophenol, reference compound]
% of control metabolism, raloxifene G1 [1]: 37 (0), 42 (2) % and 49 (2), 51 (2) % and 63 (4), 66 (1) %
% of control metabolism, raloxifene G2 [1]: 37 (0), 42 (2) % and 49 (2), 51 (2) % and 63 (4), 66 (1) %
% of control metabolism (SD, n = 3), 7-HFC glucuronidation [2, 6]: 62 (1) %

Compound: CCCCCCCCCCCCCCCC(=O)Oc1ccc([N+](=O)[O-])cc1 [p-Nitrophenyl palmitate]
% of control metabolism (SD, n = 3), 7-HFC glucuronidation [2, 6]: 96 (1) %

Compound: C[C@]12CC[C@@H]3c4ccc(O)cc4CC[C@H]3[C@@H]1C[C@@H](O)[C@@H]2O [Estriol]
% of control metabolism (SD, n = 3), raloxifene glucuronide G1 [1, 4]: 46 (3) %
% of control metabolism (SD, n = 3), raloxifene glucuronide G2 [1, 5]: 60 (3) %
% of control metabolism (SD, n = 3), 7-HFC glucuronidation [2, 6]: 84 (2) %

Compound: CCCCCCCCCCCCCCCC(=O)O[C@H]1CC[C@@]2(C)C(=CC[C@H]3[C@@H]4CC[C@H]([C@H](C)CCCC(C)C)[C@@]4(C)CC[C@@H]32)C1 [Cholesteryl palmitate]
% of control metabolism (SD, n = 3), 7-HFC glucuronidation [2, 6]: 100 (3) %

The remaining lines, values ahead:

% of control metabolism (SD, n = 3), raloxifene glucuronide G1 [1, 4]: 75 (2) %
% of control metabolism (SD, n = 3), raloxifene glucuronide G2 [1, 5]: 80 (2) %
% of control metabolism (SD, n = 3), 7-HFC glucuronidation [2, 6]: 81 (3) %
Compound: COc1ccc2cc(CCC(C)=O)ccc2c1 [Nabumetone]

% of control metabolism (SD, n = 3), raloxifene glucuronide G1 [1, 7]: 76 (6) %
% of control metabolism (SD, n = 3), raloxifene glucuronide G1 [1, 4]: 25 (3) %
% of control metabolism (SD, n = 3), raloxifene glucuronide G2 [1, 8]: 79 (4) %
% of control metabolism (SD, n = 3), raloxifene glucuronide G2 [1, 5]: 44 (2) %
% of control metabolism (SD, n = 3), 7-HFC glucuronidation [2, 6]: 85 (0) %
Compound: CC1=C(CC(=O)O)c2cc(F)ccc2/C1=C\c1ccc([S+](C)[O-])cc1 (centres unmarked) [Sulindac]

% of control metabolism (SD, n = 3), 7-HFC glucuronidation [2, 6]: 89 (3) %
Compound: CCCCCCCCCCCCCCCC(=O)OCC [Ethyl palmitate]

% of control metabolism (SD, n = 3), 7-HFC glucuronidation [2, 6]: 99 (1) %
Compound: O=C1O[C@H]([C@@H](O)CO)C(O)=C1O [Ascorbic acid]

residual metabolism (percentage of control), zidovudine glucuronidation [3]: 81 (4) %
Compound: COc1cc(C=O)ccc1O [Vanillin]

% of control metabolism (SD, n = 3), 7-HFC glucuronidation [2, 6]: 87 (1) %
Compound: OCC=Cc1ccccc1 [Cinnamyl alcohol]
